From patent US20020115642A1, “Beta-lactam antibiotics” (priority 2000, published 2002)
Converted amounts (≈) assume the structure as drawn.

Experiments:
Gram-negative species = assay: MIC comparison with reference antibiotics, Gram-negative species; type: cell-based
Method: (§1) The NCCLS (National Committee for Clinical Laboratory Standards) method to determine MIC's of antimicrobial compounds was modified for high-throughput screening. All stocks of tested compounds were prepared in either water or in dimethylsulfoxide (DMSO), depending on the solubility. […] Briefly 20 2-fold serial dilutions of testing compounds from the highest concentration were made in a 384-well microtiter plate. Each well was inoculated with testing bacteria in broth to a final concentration of approximately 1-1.5×10^6 cells/ml. Bacterial growth was determined by the increase of optical density at 600 nm using a microplate reader (Tecan SpectraFluor Plus).

M. catarrhalis = assay: Susceptibility testing (MIC, modified NCCLS method); type: cell-based, Moraxella catarrhalis; details: M. catarrhalis (4)
Method: as §1

[1] = test system: UDP-glucuronosyltransferase; assay: Glucuronidation assay; type: in vitro ADME, human
Method: Assays were conducted as outlined in Example 15, using 100 μM Compound (9), triclosan or cephalothin incubated with 100 μg human liver microsome at 37° C. for 1 hour. The reactants were analyzed on TLC plate, and glucuronidated compounds were visualized by MolecularDynamics Storm 820.
Glucuronidation assay was performed based on modified procedure from Bansal and Gessner (1980) Anal. Biochem. 109:321-329. Reactions were performed in 50 mM Tris buffer, pH 7.6, containing 10 mM MgCl2, ImM UDPGA, 0.04 μCi of ^14C-UDPGA, 0.1 mM substrate, and 100 μg human liver microsome. The final volume was 100 μL. Reactions were incubated at 37° C. for one hour and the reactants extracted with 200 μL of 100% ethanol. The protein was removed by centrifugation at 12,000×g for 5 minutes in an Eppendorf centrifuige. The supernatant was dried and resuspended in 30 μL of 100% methanol and spotted on a Whatman glass-backed linear k TLC plate. Chromatography was performed in a mixture of 1-butanol/acetone/acetic acid/water (35:35:10:20). The TLC plate was then dried and exposed to phosphor imager overnight, then monitored by imaging (MolecularDynamics Storm 820).

[2] = E. aerogenes, E. cloacae and K. pneumoniae

**Q.** For `O=C(Cc1cccs1)N[C@@H]1C(=O)N2C(C(=O)O)=C(COc3cc(Cl)ccc3Oc3ccc(Cl)cc3Cl)CS[C@H]12` [Compound 9, 3-(2-(2,4-Dichlorophenoxy)-5-chlorophenoxy)methyl-7-(2-thienylacetamido)-3-cephem-4-carboxylic acid], which “fold less active than imipenem” value (Gram-negative species; [2]) is on record?
**A.** Its value is 4 fold.

**Q.** And the “fold more active than cephalothin or ampicillin” value (Gram-negative species; [2])?
**A.** Its value is “at least 33 fold”.

**Q.** What about the “fold stronger than ampicillin and cephalothin” value (Gram-negative species; M. catarrhalis and H. influenzae, geometric mean MIC) of the same compound?
**A.** Its value is “at least 1000 fold”.

**Q.** And the MIC range (M. catarrhalis)?
**A.** Its MIC range is 0.015 to 31 ng/mL.

**Q.** And the MIC (M. catarrhalis; Moraxella catarrhalis, read-out: GM* MIC (geometric mean))?
**A.** Its MIC is 0.18 ng/mL (≈ 0.288 nM).

**Q.** What about the “glucuronidation by human liver microsome” value [1] of the same compound?
**A.** Its value is “not a substrate of UDP-glucuronosyltransferase”.
